Several values for one entry are separate records, joined by “and”; a condition that tells them apart may be missing. Equal values may be shown once. Entries after “also recorded” stand apart in the source; their conditions may differ.
Columns and labels:
[1] = tested on: luciferase-labeled U87MG implanted into Balb/c nude mice brains; assay: In vivo radiosensitization on orthotopically transplanted GB; design: species or system mouse; details: 150 mg/kg ip combined with IR
Protocol: In order to evaluate in vivo antitumor effects, luciferase-labeled U87MG was implanted into Balb/c nude mice brains. A small animal bioluminescence imaging system was applied to trace the tumor formation and dynamic changes in GB size. Cobalt 60 was used for fractionated-dose whole-brain irradiation therapy (IR). The tumor was irradiated with a total dose of 12 Gy in four fractions of 3 Gy at a dose rate of 0.3 Gy/min. Efaproxiral or 19c was administrated at a dosage of 150 mg/kg by intraperitoneal injection (ip) every four days over a period of sixteen days. IR was conducted 15 min after ip.
Four-week-old female BALB/c nude mice were purchased from Beijing Vital River Laboratory Animal Technology Co., Ltd. Animals were monitored daily by certified veterinary staff and laboratory personnel. All mice used in this study were maintained in a pathogen-free barrier animal facility. The study was in compliance with all relevant ethical regulations regarding animal research. All animal experiments were approved by the Institutional Animal Care and Use Committee at the Beijing Institute of Basic Medical Sciences. The U87-luc cells were processed and resuspended into basal medium at a concentration of 10^7 cells/mL. Next, 8 × 10^5 U87-luc glioma cells were implanted into the right frontal lobes of each nude mouse. Ten days after tumor implantation, tumor-bearing mice were randomly divided into six groups according to the tumor size and subjected to the indicated treatment (n = 6). Administration of drugs (150mg/kg) or vehicle was performed once every 4 days four consecutive times by intraperitoneal injection. All radiation treatments were performed 25 min after the drug or vehicle was given. Tumors on the brains of mice were irradiated at a dosage of 3 Gy four consecutive times using a ^60Co γ irradiator. The dose rate was 0.3 Gy/min. The bodies of the mice were shielded using lead blocks. The tumor progress was tracked by a small animal live bioluminescence imaging system (LB983NC100U, Germany).

[2] = tested on: mouse red blood cells; assay: In vitro red blood cell-based assay (oxygen equilibrium curve, Softron analyzer); details: final effector concentration 2 mM, mean ± SD; for P50/P50C: P50C = control with 1% DMSO; for P50: 1% DMSO; for P50 / ∆P50: mouse red blood cells; for ∆P50: ∆P50 = P50 − P50C
Description: In the first stage of our research, three series of analogues were designed and synthesized to explore refinement of the hydrophobic parts of 19f, 19m, 24a and 24b; hinge areas of 18g, 19b and 19y; and tail regions of 15c, 15d and 16c, respectively. We used the Softron Analyzer to evaluate the effect of these compounds on the half-blood oxygen saturation(P50) value of red blood cells. The most promising phenoxyaromatic acid compound, efaproxiral, was used as a positive control. […] The results reminded us that the modification of the hydrophobic part or linker extension is beneficial to improve an allosteric effect.
Eight-week-old female C57BL6J mice were purchased from Beijing Vital River Laboratory Animal Technology Co., Ltd. A total of 540 μL mouse blood was added into the 1.5 mL centrifuge tube, followed by adding 60 μL 3.8% sodium citrate. The mixture was then centrifuged at 1500 rpm for 10 min, the supernatant was carefully aspirated, and the cells were washed three times with PBS solution. After mixing packed red blood cells with Alsever’s solution in a ratio of 1:1, a blood gas analyzer (RADIOMETER ABL 90) was used to analyze the red blood cell density and hemoglobin concentration.
All of the compounds were prepared as 200 mM stock solutions in DMSO. Oxygen equilibrium measurements were performed with the Softron analyzer (Softron Medical Products, Beijing, China) using mouse red blood cells. The samples were prepared by adding 3 mg hemoglobin equivalent of red blood cells into 3.92 mL loading buffer (100 mM NaCl, 50 mM bis-Tris at pH 7.2 and 25 °C), followed by 20 μL 10% Dimethicone as a defoamer and 20 μL 20% BSA. Afterwards, 40 μL stock solution was added, and the mixture was loaded to the sample cell and fully deoxygenated by blowing into nitrogen at 37 °C for 15 min. Then, the oxygen equilibrium curve was recorded by blowing into oxygen.

[3] = tested on: HEK293 cells; assay: Cell Titer-Glo cytotoxicity assay, HEK293; type: cell-based
Protocol: (§1) For further in vivo evaluation of newly synthesized compounds, 19c and 19t were selected as candidates. Hemoglobin allosteric effectors require a relatively high blood concentration to be effective. Cytotoxicity evaluation was conducted out of consideration for medication safety. HEK293 and U87MG cells were used to evaluate the cytotoxicity.
(§2) Luciferase-transfected human glioma cells (U87-luc) and HEK293 cells were kindly provided by Dr. Nie and cultured in Dulbecco’s Modified Eagle Medium (CM10013, MacGene) with 10% fetal bovine serum (1966173C, Gibco) and 1% penicillin-streptomycin in a humidified atmosphere of 5% CO2 at 37 °C.
(§3) Cells were plated in a 96-well plate at a density of 2000 cells/well and then treated with 19c or 19t at gradient concentrations of 10^1, 10^2, 10^3, 10^4, 10^5, 10^6and 10^7 nM. Compounds 19c and 19t were prepared as the sodium salt by adding saturated sodium bicarbonate in the process of stock solution preparation. Cell viability was evaluated on the indicated days after treatment with a Cell Titer-Glo Luminescent Cell Viability Assay kit (G7572, Promega, Madison, WI, USA) according to the manufacturer’s instructions. All data were normalized to those on day 0 and presented as the mean ± standard deviation (SD).

[4] = tested on: U87MG cells; assay: Cell Titer-Glo cytotoxicity assay, U87MG; type: cell-based, human
Protocol: as §1, §2, §3

Compound	P50/P50C [2]	P50 [2]	∆P50 [2]	K (Hill coefficient of the oxygen dissociation curve at 50% saturation) [2]	other results
Cc1cc(C)cc(NC(=O)Cc2ccc(OC(C)(C)C(=O)O)cc2)c1 [Efaproxiral, 2-(4-(2-((3,5-dimethylphenyl)amino)-2-oxoethyl)phenoxy)-2-methylpropanoic acid, reference compound]	1.79 ± 0.02	82.50 ± 1.01 mmHg	36.40 mmHg		overall survival time of tumor-bearing mice compared to vehicle control [1]: could improve the overall survival time; ∆P50 ([2]; listed as Efaproxiral ( 19a )): 36.40 ± 1.01 mmHg
COC(=O)C(Oc1ccc(CC(=O)Nc2cc(C)cc(C)c2)cc1)c1ccccc1 (stereo not drawn) [15b, Methyl2-(4-(2-((3,5-dimethylphenyl)amino)-2-oxoethyl)phenoxy)-2-phenylacetate]	1.28 ± 0.19	57.82 ± 8.69 mmHg	12.58 ± 8.69 mmHg		
2-(4-(2-([1,1′-biphenyl]-4-ylamino)ethyl)phenoxy)-2-methylpropanoic acid [18e]	1.15 ± 0.37	51.84 ± 16.79 mmHg	6.60 ± 16.79 mmHg	2.28 ± 0.28	
Cc1cccc(NC(=O)Cc2ccc(OC(C)(C)C(=O)O)cc2)c1Br [19l, 2-(4-(2-((2-bromo-3-methylphenyl)amino)-2-oxoethyl)phenoxy)-2-methylpropanoic acid]	1.56 ± 0.04	70.41 ± 1.68 mmHg	25.17 ± 1.68 mmHg		
(E)-2-methyl-2-(4-(3-((3-(methylthio)phenyl)amino)-3-oxoprop-1-en-1- yl)phenoxy) propanoic acid [19t]	2.13 ± 0.07	89.62 ± 2.02 mmHg	44.38 mmHg and 44.38 ± 2.02 mmHg	2.43 ± 0.16	cytotoxicity (summary statement) ([3]; HEK293 (normal) cells): cytotoxic toward both cells with no selectivity; also recorded: cytotoxic to both normal and glioma cells at low micromolar levels without selectivity; cytotoxicity ([3]; HEK293 cells, concentration of 10 μm): showed cytotoxicity; TC50 ([3]; HEK293 cells, sodium salt stock): 165 µM; cytotoxicity (summary statement) ([4]; U87MG (glioma) cells): cytotoxic toward both cells with no selectivity; also recorded: cytotoxic to both normal and glioma cells at low micromolar levels without selectivity; cytotoxicity ([4]; U87MG cells, concentration of 10 μm): showed cytotoxicity; IC50 ([4]; U87MG cells, sodium salt stock): 183 µM
7-(2-((3,5-dimethylphenyl)amino)-2-oxoethyl)-2,3-dihydrobenzo[b][1,4]dioxine-2-carboxylic acid [compound 20]	1.12 ± 0.06	47.11 ± 8.08 mmHg	5.27 ± 3.27 mmHg	2.39 ± 0.16	
CCCCCCNC(=O)Cc1ccc(OC(C)(C)C(=O)O)cc1 [24g, 2-(4-(2-(hexylamino)-2-oxoethyl)phenoxy)-2-methylpropanoic acid]	1.10 ± 0.04	46.17 ± 7.11 mmHg	4.34 ± 2.30 mmHg		
2-(4-(1-((3,5-dimethylphenyl)carbamoyl)cyclopropyl)phenoxy)-2-methylpropanoic acid [19e]	1.10 ± 0.04	46.24 ± 7.09 mmHg	4.41 ± 2.27 mmHg	2.40 ± 0.12	
2-(4-(2-((3-bromo-5-chlorophenyl)amino)ethyl)phenoxy)-2-methylpropanoic acid [18b]	1.10 ± 0.03	42.61 ± 2.15 mmHg	3.66 ± 0.88 mmHg	2.19 ± 0.01	
2-methyl-2-(4-(2-oxo-2-(o-tolylamino)ethyl)phenoxy)propanoic acid [19f]	1.17 ± 0.04	53.78 ± 1.94 mmHg	7.72 ± 1.87 mmHg	2.26 ± 0.11	
CC(C)(Oc1ccc(CC(=O)NC(c2ccccc2)c2ccccc2)cc1)C(=O)O [24e, 2-(4-(2-(benzhydrylamino)-2-oxoethyl)phenoxy)-2-methylpropanoic acid]	1.33 ± 0.24	59.61 ± 20.96 mmHg	15.61 ± 13.07 mmHg		
CC(C)(Oc1ccc(CC(=O)Nc2cccc(I)c2)cc1)C(=O)O [19i, 2-(4-(2-((3-iodophenyl)amino)-2-oxoethyl)phenoxy)-2-methylpropanoic acid]	1.91 ± 0.13	86.61 ± 6.04 mmHg	41.37 mmHg and 41.37 ± 6.04 mmHg		
CC(C)(Oc1ccc(CC(=O)Nc2ccc(-c3ccccc3)cc2)cc1)C(=O)O [19o, 2-(4-(2-([1,1′-biphenyl]-4-ylamino)-2-oxoethyl)phenoxy)-2-methylpropanoic acid]	1.81 ± 0.04	74.56 ± 1.75 mmHg	33.37 mmHg		∆P50 ([2]; listed as 190): 33.37 ± 1.75 mmHg
CCN(CC)c1ccc(NC(=O)Cc2ccc(OC(C)(C)C(=O)O)cc2)cc1 [19r, 2-(4-(2-((4-(diethylamino)phenyl)amino)-2-oxoethyl)phenoxy)-2-methylpropanoic acid]	1.57 ± 0.02	65.81 ± 6.64 mmHg	23.97 ± 1.82 mmHg		
